# Measurements taken from article PMC5007552, “The hVps34‐SGK3 pathway alleviates sustained PI3K/Akt inhibition by stimulating mTORC1 and tumour growth” (The EMBO Journal, 2016).
# Several values for one entry are separate records, joined by “and”; a condition that tells them apart may be missing. Equal values may be shown once.
# Test system: ZR-75-1 cells
# Test: NanoString human kinome mRNA quantification
# Format: cell-based
# Source text: Human mRNAs were hybridised to NanoString human kinome and control code sets, then subjected to quantification using NanoString software. […] To permit data compaction, and simple kinome‐wide comparisons, the fold changes are log2 transformed. […] Cell pellets were resuspended at a concentration of ~6,500 cells/μl in RLT buffer (Qiagen). […] For total copy numbers, triplicate normalised count values were averaged, and to calculate fold induction, means were divided by triplicate mean values from matched DMSO controls. P‐values were calculated using unpaired t‐test (GraphPad Prism software) by employing treated and control count data for each kinase mRNA.
smiles,measurement,setting,value
NC1(c2ccc(-c3nc4ccn5c(=O)[nH]nc5c4cc3-c3ccccc3)cc2)CCC1 [MK-2206],MAST2 Normalised counts (single replicates),"MAST2 mRNA, replicates 1-3",738.65 and 699.23 and 725.5
same,MAST3 Normalised counts (single replicates),"MAST3 mRNA, replicates 1-3",218.81
same,MAST4 Normalised counts Average,"MAST4 mRNA, average of 3",166.143
same,MAST4 Normalised counts (single replicates),"MAST4 mRNA, replicates 1-3",166 and 165.82 and 166.61
same,MASTL Normalised counts Average,"MASTL mRNA, average of 3",679.5
same,MASTL Normalised counts (single replicates),"MASTL mRNA, replicates 1-3",701.38 and 631.47 and 705.65
same,MATK Normalised counts (single replicates),"MATK mRNA, replicates 1-3",210.28
same,MERTK Normalised counts Average,"MERTK mRNA, average of 3",1
same,MERTK Normalised counts (single replicates),"MERTK mRNA, replicates 1-3",1
same,MET Normalised counts Average,"MET mRNA, average of 3",45.06
same,MET Normalised counts (single replicates),"MET mRNA, replicates 1-3",44.2 and 35.51 and 55.47
same,MINK1 Normalised counts Average,"MINK1 mRNA, average of 3",1315.77
same,MINK1 Normalised counts (single replicates),"MINK1 mRNA, replicates 1-3",1338.56 and 1283.89 and 1324.87
same,Average normalised counts,MKNK1 mRNA,747.723
same,Average normalised counts,MKNK2 mRNA,1542.12
same,Average normalised counts,MLKL mRNA,206.987
same,Average normalised counts,MOK mRNA,276.793
same,Average normalised counts,MOS mRNA,1.463
same,Average normalised counts,MST1R mRNA,587.597
same,Average normalised counts,MST4 mRNA,1197.2
same,Average normalised counts,MTOR mRNA,1169.76
same,Average normalised counts,MUSK mRNA,1
same,Average normalised counts,MYLK2 mRNA,3.573
same,Average normalised counts,MYLK3 mRNA,4.65
same,Average normalised counts,MYLK4 mRNA,3.183
same,Average normalised counts,MYLK mRNA,35.0933
same,Average normalised counts,MYO3B mRNA,1.693
same,Average normalised counts,NEK1 mRNA,126.33
same,Average normalised counts,NEK2 mRNA,1658.91
same,Average normalised counts,NEK3 mRNA,279.833
same,Average normalised counts,NEK5 mRNA,63.3867
same,Average normalised counts,NEK6 mRNA,316.677
same,Average normalised counts,NEK7 mRNA,1505.67
same,Average normalised counts,NEK8 mRNA,178.517
same,Average normalised counts,NEK9 mRNA,368.757
same,Average normalised counts,NEK10 mRNA,2.217
same,Average normalised counts,NIM1 mRNA,1.163
same,Average normalised counts,NLK mRNA,173.16
same,Average normalised counts,NPR1 mRNA,1
same,Average normalised counts,NPR2 mRNA,1
same,Average normalised counts,NRBP1 mRNA,1653.03
same,Average normalised counts,NRBP2 mRNA,1124.63
same,Average normalised counts,NRK mRNA,29.1233
same,Average normalised counts,NTRK1 mRNA,2.95
same,Average normalised counts,NTRK2 mRNA,77.2267
same,Average normalised counts,NTRK3 mRNA,11.2267
same,Average normalised counts,NUAK1 mRNA,101.57
same,Average normalised counts,NUAK2 mRNA,96.2433
same,Average normalised counts,OBSCN mRNA,96.8
same,Average normalised counts,OXSR1 mRNA,220.06
same,Average normalised counts,PAK1 mRNA,710.853
same,Average normalised counts,PAK2 mRNA,2547.5
same,Average normalised counts,PAK3 mRNA,3.48
same,Average normalised counts,PAK4 mRNA,1206.53
same,Average normalised counts,PAK6 mRNA,64.56
same,Average normalised counts,PAK7 mRNA,2.957
same,Average normalised counts,PAN3 mRNA,788.86
same,"ROCK2 normalised counts, average","ROCK2 mRNA, average of 3 replicates",1654.49
same,ROCK2 normalised counts,"ROCK2 mRNA, single replicates",1580.35 and 1693.07 and 1690.04
same,"ROR1 normalised counts, average","ROR1 mRNA, average of 3 replicates",3.17
same,ROR1 normalised counts,"ROR1 mRNA, single replicates",1.48 and 3.37 and 4.66
same,"ROR2 normalised counts, average","ROR2 mRNA, average of 3 replicates",177.843
same,ROR2 normalised counts,"ROR2 mRNA, single replicates",183.27 and 188.41 and 161.85
same,"ROS1 normalised counts, average","ROS1 mRNA, average of 3 replicates",1
same,ROS1 normalised counts,"ROS1 mRNA, single replicates",1
same,"RPS6KA1 normalised counts, average","RPS6KA1 mRNA, average of 3 replicates",743.577
same,RPS6KA1 normalised counts,"RPS6KA1 mRNA, single replicates",752.28 and 733.11 and 745.34
same,"RPS6KA2 normalised counts, average","RPS6KA2 mRNA, average of 3 replicates",42.18
same,RPS6KA2 normalised counts,"RPS6KA2 mRNA, single replicates",39.65 and 43.33 and 43.56
same,"RPS6KA3 normalised counts, average","RPS6KA3 mRNA, average of 3 replicates",81.17
same,RPS6KA3 normalised counts,"RPS6KA3 mRNA, single replicates",77.83 and 82.42 and 83.26
same,"RPS6KA4 normalised counts, average","RPS6KA4 mRNA, average of 3 replicates",830.71
same,RPS6KA4 normalised counts,"RPS6KA4 mRNA, single replicates",858.63 and 809.56 and 823.94
same,"RPS6KA5 normalised counts, average","RPS6KA5 mRNA, average of 3 replicates",131.06
same,RPS6KA5 normalised counts,"RPS6KA5 mRNA, single replicates",126.01 and 136.28 and 130.89
same,"RPS6KA6 normalised counts, average","RPS6KA6 mRNA, average of 3 replicates",136.14
same,RPS6KA6 normalised counts,"RPS6KA6 mRNA, single replicates",127.82 and 135.42 and 145.18
same,"RPS6KB1 normalised counts, average","RPS6KB1 mRNA, average of 3 replicates",1559.99
same,RPS6KB1 normalised counts,"RPS6KB1 mRNA, single replicates",1574.89 and 1571.44 and 1533.65
same,"RPS6KB2 normalised counts, average","RPS6KB2 mRNA, average of 3 replicates",3538.09
same,RPS6KB2 normalised counts,"RPS6KB2 mRNA, single replicates",3546.44 and 3576.5 and 3491.33
same,"RPS6KC1 normalised counts, average","RPS6KC1 mRNA, average of 3 replicates",1368.65
same,RPS6KC1 normalised counts,"RPS6KC1 mRNA, single replicates",1361.29 and 1349.92 and 1394.73
same,"RPS6KL1 normalised counts, average","RPS6KL1 mRNA, average of 3 replicates",85.8967
same,RPS6KL1 normalised counts,"RPS6KL1 mRNA, single replicates",86.01 and 87.63 and 84.05
same,"RYK normalised counts, average","RYK mRNA, average of 3 replicates",1136.11
